The text below walks through data of paper PMC12519060, “The anabolic steroid stanozolol is a potent inhibitor of human MutT homolog 1” (Febs Letters, 2025).

Experiment [1] addresses T1, hMTH1 (human MutT homolog 1) (Homo sapiens, UniProt P36639). Set-up: gene NUDT1. Particulars: substrate dGTP 100 μM, 6 nM hMTH1, 10 mM Mg acetate, 1% DMSO, 22 °C, active site (crystal structure, metal free) buffer, no inhibition seen, bound not given.
For experiment [2], the target named is T1, hMTH1 (human MutT homolog 1). The experiment in a line: modified Malachite Green assay with inorganic pyrophosphatase. Set-up: gene NUDT1; E. coli-optimised cDNA in pET28a(+), expressed in E. coli BL21(DE3); His-tag removed with thrombin; monomer. It is filed as biochemical.

As to `C[C@]12CCC(=O)C[C@@H]1CC[C@@H]1[C@@H]2CC[C@]2(C)[C@@H](O)CC[C@@H]12` [Dihydrotestosterone], the no inhibition entry in experiment [1] is given as “while DHT did not show any inhibition of hMTH1 (Fig. S1)”.
For the compound `C[C@]12Cc3c[nH]nc3C[C@@H]1CC[C@@H]1[C@@H]2CC[C@@]2(C)[C@H]1CC[C@]2(C)O` [stanozolol], the IC50 in experiment [2] stood at 26 nM.
